Reference: patent US20230255966A1, “A COMBINATION OF A CBP/P300 BROMODOMAIN INHIBITOR AND AN EGFR INHIBITOR FOR USE IN TREATING EGFR-MUTANT NSCLC” (TOLREMO THERAPEUTICS AG, priority 2020, published 2023)

System: NCI-H1975 cells
Assay: Gene expression analysis (qPCR of ALPP and HOPX)
Format: cell-based
Conditions: NCI-H1975, 1 μM CBP/p300 inhibitor in presence of 20 nM osimertinib, 24 h
Description: Equal amount of cDNA was then subjected to qPCR analysis using the Kapa SYBR fast kit (KK4611) in a 384 well format in a Roche Light Cycler 480. Gene expression of genes was evaluated by subtraction of housekeeping gene CT-values (b-Actin) from CT of the genes of interest, and by calculating the ΔΔCT by subtracting the DMSO control value from sample of interest to finally calculate fold change differences of treated versus control treated sample.
Data is from 2 independent experiments with qPCRs in duplicate (mean±SEM) (FIG. 1C-D).

**Q.** Which “EGFR inhibitor induced gene expression (ALPP, HOPX)” value does the source give for `CO[C@H]1CC[C@H](n2c([C@@H]3CCCC(=O)N3c3ccc(F)c(F)c3)nc3cc(-c4c(C)noc4C)ccc32)CC1` [CCS1477] here?
**A.** reverse EGFR inhibitor induced gene expression
